The first series can be described thus: logP by HPLC on reversed-phase column (C 18), EEC Directive 79/831 Annex V.A8. Format: physicochemical. To be noted: HPLC, 0.1% aqueous formic acid and acetonitrile, 40° C.; pH 2.3. How it is done: Temperature: 40° C.; Mobile phases: 0.1% aqueous formic acid and acetonitrile; linear gradient from 10% acetonitrile to 90% acetonitrile.
As to `Cc1cc(Oc2ccnc(Oc3ccc(Cl)cc3)n2)c(C)cc1N=CN1CCCCC1` [Compound 82], the logPa was 2.18.

`CCCN(C)C=Nc1cc(C)c(Oc2ncnc(CC)c2Cl)cc1C` [Compound 84] yielded a logPa of 1.99.

Molecule `CCN(C)C=Nc1cc(C)c(Oc2cc(N(C)CC)ncn2)cc1C` [Compound 43] came in with a logPa of 1.46.

`CCN(C)C=Nc1cc(C)c(Oc2ccnc(Oc3cccc(Cl)c3C)n2)cc1C` [Compound 2, N′-{4-[2-(3-chloro-2-methyl-phenoxy)-pyrimidin-4-yloxy]-2,5-dimethyl-phenyl}-N-ethyl-N-methyl-formamidine] displayed a logPa of 2.08.

Take `CCCN(C)C=Nc1cc(C)c(Oc2cc(Cl)ncn2)cc1C` [Compound 16]: the logPa is 1.56.

For the molecule `Cc1cc(Oc2ccnc(N3CCCCC3)n2)c(C)cc1N=CN(C)C(C)C` [Compound 34], the logPa is 1.56.

The molecule `Cc1cc(Oc2ccnc(Oc3ccc(C(F)(F)F)cc3)n2)c(C)cc1N=CN1CCCCC1` [Compound 88] showed a logPa of 2.49.

The molecule `Cc1cc(Oc2ccnc(N3C=NCC3)n2)c(C)cc1N=CN(C)C(C)C` [Compound 31] showed a logPa of 1.01.

For the molecule `CCN(C)C=Nc1cc(C)c(Oc2cc(C)nc(Cl)n2)cc1C` [Compound 3, N′-{4-[(2-chloro-6-methylpyrimidin-4-yl)oxy]-2,5-dimethylphenyl}-N-ethyl-N-methylimido-formamide], the logPa is reported as 1.45.

Regarding `CCOc1nccc(Oc2cc(C)c(N=CN(C)C(C)C)cc2C)n1` [Compound 44], the logPa was determined as 1.62.

Turning to `CCc1ncnc(Oc2cc(C)c(N=CN3CCCCC3)cc2C)c1Cl` [Compound 85], the logPa was determined as 1.98.

The molecule `CCN(C)C=Nc1cc(C)c(Oc2ccnc(Oc3ccc(F)c(F)c3)n2)cc1C` [Compound 70] returned a logPa of 1.93.

`CCCN(C)C=Nc1cc(C)c(Oc2ncc(Cl)c(N(C)CC)n2)cc1C` [Compound 100] gave a logPa of 1.95.

`Cc1cc(Oc2ccnc(Oc3ccccc3)n2)c(C)cc1N=CN1CCCCC1` [Compound 76] returned a logPa of 2.02.

As for `Cc1cc(Oc2ccnc(N3CCOCC3)n2)c(C)cc1N=CN(C)C(C)C` [Compound 33], the logPa is recorded as 1.46.

As to `CCN(C)C=Nc1cc(C)c(Oc2ncc(Cl)c(N(C)CC)n2)cc1C` [Compound 89, N′-[4-({5-chloro-4-[ethyl(methyl)amino]pyrimidin-2-yl}oxy)-2,5-dimethyl-phenyl]-N-ethyl-N-methylimidoformamide], the logPa turned out to be 1.82.

For the molecule `CCN(C)C=Nc1cc(C)c(Oc2ncnc(Oc3cccc(Cl)c3C)c2C)cc1C` [Compound 8], the logPa is recorded as 2.6.

The molecule `Cc1cc(Oc2ccnc(N(C)c3ccccc3)n2)c(C)cc1N=CN1CCCCC1` [Compound 61] registered a logPa of 1.84.

The series is the same for the next values; noted with them: measured at pH = 4 (footnote a).
With `CCN(C)C=Nc1cc(C)c(Oc2cc(C(F)(F)F)ncn2)cc1C` [Compound 7], the logPa is reported as 1.85^a.

On to `CCN(C)C=Nc1cc(C)c(Oc2cc(Oc3cccc(C(C)(C)C)c3)ncn2)cc1C` [Compound 9], for which the logPa is 4.9^a.

As to `CCN(C)C=Nc1cc(C(C)C)c(Oc2nccc(C(F)(F)F)n2)cc1C` [Compound 92], the logPa was 1.10^a.

Still in this series, the particulars now being: reversed-phase C18 HPLC column; pH 2.3; value in preparation example text; read-out: log P (pH 2.3).
Take `CCN(C)C=Nc1cc(C)c(Oc2ccnc(Oc3cccc(Cl)c3C)n2)cc1C` [Compound 2, N′-{4-[2-(3-chloro-2-methyl-phenoxy)-pyrimidin-4-yloxy]-2,5-dimethyl-phenyl}-N-ethyl-N-methyl-formamidine]: the chromatographic logP was found to be 2.08.

Turning to `CCN(C)C=Nc1cc(C)c(Oc2cc(C)nc(Cl)n2)cc1C` [Compound 3, N′-{4-[(2-chloro-6-methylpyrimidin-4-yl)oxy]-2,5-dimethylphenyl}-N-ethyl-N-methylimido-formamide], the chromatographic logP amounted to 1.45.

In the case of `CCN(C)C=Nc1cc(C)c(Oc2ncc(Cl)c(N(C)CC)n2)cc1C` [Compound 89, N′-[4-({5-chloro-4-[ethyl(methyl)amino]pyrimidin-2-yl}oxy)-2,5-dimethyl-phenyl]-N-ethyl-N-methylimidoformamide], the chromatographic logP amounted to 1.82.

As to `Cc1cc(Oc2cc(C)c(N)cc2C)nc(Cl)n1` [4-[(2-chloro-6-methylpyrimidin-4-yl)oxy]-2,5-dimethylaniline], the chromatographic logP was found to be 1.62.
